Measured values: patent US20110166121A1 (LG LIFE SCIENCES LTD., priority 2008, published 2011)
Like-named read-outs stand apart in the source and are kept apart here.

Tests used:
[1] = target: T1, Human P2Y12 receptor (Homo sapiens, UniProt Q9H244); assay: Human P2Y12 receptor cell membrane binding assay with [3H] 2-Mes-ADP
T1 construct: expressed in transfected cells; host or cells: HEK cells
In short: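 Competition binding used 1 nM [3H]2-MeS-ADP on P2Y12-expressing HEK cell membranes for 1 h at room temperature, followed by filtration and scintillation counting.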

[2] = system: Human platelet aggregation caused by ADP; assay: Inhibition of ADP-induced platelet aggregation (Mimic-human PRP); format: cell-based; settings: 20 μM ADP, human platelet concentrate diluted with PPP, absorption at 595 nm
In short: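 Ki came from non-linear sigmoidal fits of inhibition, measured as the 3-min rise in absorbance at 595 nm after 20 μM ADP, relative to 0/20 μM ADP controls. Platelets (3–4×10^8/mL in PPP-diluted human PRP) were exposed to 0.01–30 μM compound for 20 min at room temperature beforehand.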

[3] = 1 nM [3H] 2-Mes-ADP, membranes of HEK cells expressing P2Y12 receptor, read-out: Binding activity (IC50)

T1 sequence (Q9H244 whole entry): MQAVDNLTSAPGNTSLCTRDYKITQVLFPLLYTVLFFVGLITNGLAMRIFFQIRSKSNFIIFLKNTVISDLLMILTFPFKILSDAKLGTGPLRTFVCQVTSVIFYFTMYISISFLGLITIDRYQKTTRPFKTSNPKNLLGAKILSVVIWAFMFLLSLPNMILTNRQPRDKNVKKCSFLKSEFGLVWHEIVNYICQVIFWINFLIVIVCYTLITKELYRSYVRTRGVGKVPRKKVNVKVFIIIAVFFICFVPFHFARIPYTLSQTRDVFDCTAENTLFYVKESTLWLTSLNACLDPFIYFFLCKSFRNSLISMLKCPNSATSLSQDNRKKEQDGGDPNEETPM

Row | SMILES | IC50 [1, 3] | Ki [2] | IC50 [1]
1 | CCCc1cc2c(N3CCn4c(nnc4C(F)(F)F)C3)nc(N3CC(OC(C)=O)C3)nc2s1 [Example 1-84, Acetic Acid 1-[6-propyl-4-(3-trifluoromethyl-5,6-dihydro-8H-[1,2,4]triazolo[4,3-a]pyrazin-7-yl)-thieno[2,3-d]pyrimidin-2-yl]-azetidin-3-yl ester] | 0.16 µM | 0.073 µM | 
2 | CCCc1cc2c(N3CCn4c(nnc4C(F)(F)F)C3)nc(N3CC(O)C3)nc2s1 [Example 1-85, 1-[6-Propyl-4-(3-trifluoromethyl-5,6-dihydro-8H-[1,2,4]triazolo[4,3-a]pyrazin-7-yl)-thieno[2,3-d]pyrimidin-2-yl]-azetidin-3-ol] | 0.096 µM | 0.014 µM | 
3 | CCCc1cc2c(N3CCn4c(nnc4C(F)(F)F)C3)nc(N3CC[C@H](C(N)=O)C3)nc2s1 [Example 1-86, (S)-1-[6-Propyl-4-(3-trifluoromethyl-5,6-dihydro-8H-[1,2,4]triazolo[4,3-a]pyrazin-7-yl)-thieno[2,3-d]pyrimidin-2-yl]-pyrrolidine-3-carboxylic acid amide] | 0.024 µM | 0.011 µM | 
4 | CCCc1cc2c(N3CCn4c(nnc4C(F)(F)F)C3)nc(N3CC[C@H](C(=O)NC)C3)nc2s1 [Example 1-87, (S)-1-[6-Propyl-4-(3-trifluoromethyl-5,6-dihydro-8H-[1,2,4]triazolo[4,3-a]pyrazin-7-yl)-thieno[2,3-d]pyrimidin-2-yl]-pyrrolidine-3-carboxylic acid methylamide] | 0.067 µM | 0.011 µM | 
5 | CCCc1cc2c(N3CCn4c(nnc4C(F)(F)F)C3)nc(N3CC[C@H](C(=O)NO)C3)nc2s1 [Example 1-89, (S)-1-[6-Propyl-4-(3-trifluoromethyl-5,6-dihydro-8H-[1,2,4]triazolo[4,3-a]pyrazin-7-yl)-thieno[2,3-d]pyrimidin-2-yl]-pyrrolidine-3-carboxylic acid hydroxyamide] | 0.055 µM | 0.012 µM | 
6 | CCCc1cc2c(N3CCn4c(nnc4C(F)(F)F)C3)nc(N3CC[C@H](C(=O)NCCO)C3)nc2s1 [Example 1-90, (S)-1-[6-Propyl-4-(3-trifluoromethyl-5,6-dihydro-8H-[1,2,4]triazolo[4,3-a]pyrazin-7-yl)-thieno[2,3-d]pyrimidin-2-yl]-pyrrolidine-3-carboxylic acid (2-hydroxy-ethyl)-amide] | 0.11 µM | 0.05 µM | 
7 | CCCc1cc2c(N3CCn4c(nnc4C(F)(F)F)C3)nc(N3CC[C@H](C(=O)NCCN)C3)nc2s1 [Example 1-91, (S)-1-[6-Propyl-4-(3-trifluoromethyl-5,6-dihydro-8H-[1,2,4]triazolo[4,3-a]pyrazin-7-yl)-thieno[2,3-d]pyrimidin-2-yl]-pyrrolidine-3-carboxylic acid (2-amino-ethyl)-amide] | 0.19 µM | 0.14 µM | 
8 | CCCc1cc2c(N3CCn4c(nnc4C(F)(F)F)C3)nc(N3CC3C(=O)OC)nc2s1 (stereo not drawn) [Example 1-96, 1-[6-Propyl-4-(3-trifluoromethyl-5,6-dihydro-8H-[1,2,4]triazolo[4,3-a]pyrazin-7-yl)-thieno[2,3-d]pyrimidin-2-yl]-aziridine-2-carboxylic acid methyl ester] |  | 0.021 µM | 0.63 µM
9 | CCCc1cc2c(N3CCn4c(nnc4C(F)(F)F)C3)nc(N3CCC(N(C)C)C3)nc2s1 (stereo not drawn) [Example 1-97, Dimethyl-{1-[6-propyl-4-(3-trifluoromethyl-5,6-dihydro-8H-[1,2,4]triazolo[4,3-a]pyrazin-7-yl)-thieno[2,3-d]pyrimidin-2-yl]-pyrrolidin-3-yl}-amine] | 0.14 µM | 0.013 µM | 
10 | CCCc1cc2c(N3CCn4c(nnc4C(F)(F)F)C3)nc(NC3CCNC3)nc2s1 (stereo not drawn) [Example 1-98, [6-Propyl-4-(3-trifluoromethyl-5,6-dihydro-8H-[1,2,4]triazolo[4,3-a]pyrazin-7-yl)-thieno[2,3-d]pyrimidin-2-yl]-pyrrolidin-3-yl-amine] | 0.47 µM | 0.032 µM | 
11 | CCCc1cc2c(N3CCn4c(nnc4C(F)(F)F)C3)nc(N3CC[C@H](NCCO)C3)nc2s1 [Example 1-99, 2-{(S)-1-[6-Propyl-4-(3-trifluoromethyl-5,6-dihydro-8H-[1,2,4]triazolo[4,3-a]pyrazin-7-yl)-thieno[2,3-d]pyrimidin-2-yl]-pyrrolidin-3-ylamino}-ethanol] | 0.13 µM | 0.043 µM | 
12 | CCCc1cc2c(N3CCn4c(nnc4C(F)(F)F)C3)nc(N3CC[C@H](NC(=O)CC#N)C3)nc2s1 [Example 1-103, 2-Cyano-N-{(S)-1-[6-propyl-4-(3-trifluoromethyl-5,6-dihydro-8H-[1,2,4]triazolo[4,3-a]pyrazin-7-yl)-thieno[2,3-d]pyrimidin-2-yl]-pyrrolidin-3-yl}-acetamide] | 0.05 µM | 0.0066 µM | 
13 | CCCc1cc2c(N3CCn4c(nnc4C(F)(F)F)C3)nc(N3CC[C@H](NC(=O)CC(F)(F)F)C3)nc2s1 [Example 1-104, 3,3,3-Trifluoro-N-{(S)-1-[6-propyl-4-(3-trifluoromethyl-5,6-dihydro-8H-[1,2,4]triazolo[4,3-a]pyrazin-7-yl)-thieno[2,3-d]pyrimidin-2-yl]-pyrrolidin-3-yl}-propionamide] | 0.08 µM | 0.086 µM | 
14 | CCCc1cc2c(N3CCn4c(nnc4C(F)(F)F)C3)nc(N3CC[C@H](NC(=O)CCO)C3)nc2s1 [Example 1-109, 3-Hydroxy-N-{(S)-1-[6-propyl-4-(3-trifluoromethyl-5,6-dihydro-8H-[1,2,4]triazolo[4,3-a]pyrazin-7-yl)-thieno[2,3-d]pyrimidin-2-yl]-pyrrolidin-3-yl}-propionamide] | 0.08 µM | 0.026 µM | 
15 | CCCc1cc2c(N3CCn4c(nnc4C(F)(F)F)C3)nc(N3CC[C@H](NC(=O)CCN)C3)nc2s1 [Example 1-110, 3-Amino-N-{(S)-1-[6-propyl-4-(3-trifluoromethyl-5,6-dihydro-8H-[1,2,4]triazolo[4,3-a]pyrazin-7-yl)-thieno[2,3-d]pyrimidin-2-yl]-pyrrolidin-3-yl}-propionamide] | 0.67 µM | 0.06 µM | 
16 | CCCc1cc2c(N3CCn4c(nnc4C(F)(F)F)C3)nc(N3CC[C@H](NC(=O)c4ccccn4)C3)nc2s1 [Example 1-111, Pyridine-2-carboxylic Acid {(S)-1-[6-propyl-4-(3-trifluoromethyl-5,6-dihydro-8H-[1,2,4]triazolo[4,3-a]pyrazin-7-yl)-thieno[2,3-d]pyrimidin-2-yl]-pyrrolidin-3-yl}-amide] | 0.15 µM | 0.59 µM | 
17 | CCCc1cc2c(N3CCn4c(nnc4C(F)(F)F)C3)nc(N3CC[C@H](NC(=O)c4ccco4)C3)nc2s1 [Example 1-112, Furan-2-carboxylic Acid {(S)-1-[6-propyl-4-(3-trifluoromethyl-5,6-dihydro-8H-[1,2,4]triazolo[4,3-a]pyrazin-7-yl)-thieno[2,3-d]pyrimidin-2-yl]-pyrrolidin-3-yl}-amide] | 0.05 µM | 0.26 µM | 
18 | CCCc1cc2c(N3CCn4c(nnc4C(F)(F)F)C3)nc(N3CC[C@H](NS(C)(=O)=O)C3)nc2s1 [Example 1-113, N-{(S)-1-[6-Propyl-4-(3-trifluoromethyl-5,6-dihydro-8H-[1,2,4]triazolo[4,3-a]pyrazin-7-yl)-thieno[2,3-d]pyrimidin-2-yl]-pyrrolidin-3-yl}-methanesulfonamide] | 0.032 µM | 0.036 µM | 
